In the case of `Cc1cccc(-n2nc(C)c3c(=O)c4cc(F)c(F)cc4[nH]c32)n1`, the melting point lay within 301 to 302 °C. The figure for `Cc1nc(NCC(=O)c2ccccc2)c2cc(C)sc2n1` is 159 °C. Molecule `Cc1ccc2nc(N3CCN(c4ncccc4Cl)CC3)[nH]c2c1` registered a melting point of 258 to 259 °C. The molecule `CCCCOC(=O)Cc1nc(-c2ccccc2)oc1-c1ccsc1` gave a melting point of 71 to 72 °C.

For `Cc1cc(C)c([N+](=O)[O-])cc1NC(=O)CC#N`, the melting point was in the range of 229 to 230 °C. The figure for `CCOC(=O)CNc1nc2ccccc2s1` is 91 to 97 °C. On to `CC(C)C(C(N)=O)N(C)C(=O)OC(C)(C)C` (stereo not drawn), for which the melting point was in the range of 181 to 183 °C. As for `C=CC(=O)N1CC(c2ccccc2)c2ccccc21` (stereo not drawn), the figure is 77 to 78 °C. As for `Cc1nc(Cl)c2c3c(oc2n1)CCCC3`, the figure is 42.4 to 43.8 °C; as for `CCCCN(CC(=O)O)S(=O)(=O)c1ccc(N2CCC(NC[C@H](O)c3ccc(O)c(NS(C)(=O)=O)c3)CC2)cc1`, 125 to 138 °C; as for `CCc1ccc(O)c(C(=NO)c2ccc(Cl)cc2)c1`, 117 °C. The figure for `COc1cc2c(cc1OC)CC(NC(=O)N(C)O)CC2` (stereo not drawn) is 150 to 151 °C; for `CCCCC1=NC2(CCCC2)C(=O)N1Cc1ccc(-c2ccccc2S(=O)(=O)Nc2noc(C)c2C)c(CO)c1` it is 90 to 98 °C. `CCCc1nn(C)c2c(=O)n(CCOc3ccc(NC(C)=O)cc3)c(CC)nc12` displayed a melting point of 100 to 104 °C. `O=C1c2c(-c3ccccc3)cc(CNC3CC3)nc2OCCN1Cc1cc(C(F)(F)F)cc(C(F)(F)F)c1` displayed a melting point of 129 to 131 °C. On to `O=[N+]([O-])c1ccc(SSc2nccc(O)n2)c(C(Cl)(Cl)Cl)c1`, for which the melting point worked out at 174 °C.

For `CS(=O)(=O)c1ccc(C(CC2CCC(=O)C2)C(=O)O)cc1Cl` (stereo not drawn), the melting point fell in the range of 164 to 167 °C. The figure for `CON=C1CN(c2nc3c(cc2F)c(=O)c(C(=O)O)cn3C2CC2)CC12CN(C)C2` is 225 to 227 °C. Take `CC(=O)OC1CSC(Oc2c(C)ccnc2Cl)C(OC(C)=O)C1OC(C)=O` (stereo not drawn): the melting point was 144 °C. The figure for `CCOC(=O)CC(=O)c1cccs1` is 143 to 145 °C; for `C/C(=C\c1ccc(OCC(=O)O)cc1)c1ccc2c(c1)C(C)(C)CCC2(C)C` it is 152 to 154 °C; for `COC(=O)CCc1cnoc1-c1ccc(Cl)s1` it is 34 to 35 °C.

In turn, `CC(C)CNC(=O)[C@H]1C[C@@H](S(=O)(=O)c2ccc([N+](=O)[O-])cc2)[C@@H](c2ccccc2F)N1` (racemic) registered a melting point of 218 °C.

The molecule `CCC(=O)OCC(=O)C1(OC(=O)CC)CCC2C3CC(C)C4=CC(=O)C=CC4(C)C3C(O)CC21C` (stereo not drawn) came in with a melting point of 126 °C. The figure for `Cc1nc(N)nc(N[C@@H]2CCc3ccccc32)n1` is 94 to 96 °C; for `COC(=O)c1cccc(N)n1` it is 87 °C; for `Cc1nc(Nc2nc3ccc([N+](=O)[O-])cc3[nH]2)nc(O)c1CC(=O)O` it is above 300 °C. Regarding `O=C(Nc1ccccc1F)Nc1cc(Cl)ccc1C(=O)O`, the melting point fell in the range of 195 to 197 °C. The figure for `O=C1NCC(c2ccccc2)SCC1N1C(=O)c2ccccc2C1=O` (stereo not drawn) is 240 to 247 °C; for `Cc1cc(C2=NNC(=O)CC2)c2c(c1)N(C)C(=O)CO2` it is 266 to 270 °C; for `COc1nc(C)cnc1NS(=O)(=O)c1ccccc1-c1ccc(CC(C)(C)C(=O)O)cc1` it is 202 to 204 °C.

Molecule `CC(C)c1cn(C)cc(-c2ccc(Cl)c(C(F)(F)F)c2)c1=O` returned a melting point of 85 to 87 °C.

On to `CC(C)(CC(=O)C(=O)Nc1ccc2c(c1)COC2=O)c1cccc(I)c1`, for which the melting point is 160 to 161 °C.

As for `CCCCCCCCCCCCCCCc1cccc(OCC)c1C1NC(=O)NC(C)=C1C(=O)OCC` (stereo not drawn), the melting point is 99 to 100 °C. Turning to `CS(=O)(=O)N1CCN2C(=O)N(c3ccc(C#N)c4ccccc34)C(=O)C2C1` (stereo not drawn), the melting point is 207 to 216 °C. As for `Cn1nc(-c2ccc(F)cc2)c(-c2ccc(S(C)(=O)=O)cc2)cc1=O`, the figure is 181 to 182 °C; as for `CN(C(=O)C(F)(F)F)C1Cc2ccc(C(=O)Cn3cnc4cc(-c5ccc(Cl)cc5)sc4c3=O)cc2C1` (stereo not drawn), 245 to 248 °C. As for `COC(=O)Nc1nc2cc(S(=O)CC3(C)CC3(Cl)Cl)ccc2[nH]1` (stereo not drawn), the figure is 231 to 233 °C; as for `Nc1nc(C2CCN(C(=O)c3ccccc3)CC2)c2cc(Cl)ccc2n1`, 155 to 158 °C; as for `O=C(c1ccc(Cl)cc1)c1nccc2ccccc12`, 100 to 101 °C. The figure for `CCCC[C@H]1CC[C@H](c2ccc(-c3ccc(CCc4ccc(F)cc4)cc3)c(F)c2)CC1` is 68 °C; for `O=C1NN(C(=O)c2cc3ccccc3[nH]2)C(c2ccccc2)C1c1ccccc1` (stereo not drawn) it is 248 to 250 °C. With `COc1cc(/C=C/c2cc(/C=C/c3ccc4cc[nH]c4c3)n[nH]2)cc(OCc2ccccn2)c1`, the melting point fell in the range of 88 to 93 °C. `Cc1cccc(-c2[nH]c(C(C)C)nc2-c2cccc(-c3ccc(C)[nH]3)c2)n1`: the melting point was in the range of 128 to 130 °C.

Regarding `CCc1nc2cc([N+](=O)[O-])ccc2o1`, the melting point lay within 88 to 90 °C. The figure for `COC(=O)C(=O)Nc1ccccc1C(C)(C)C` is 61.7 to 63.6 °C; for `CCN(CC)CCCNC(=O)N1CCCC(S(=O)(=O)c2ccccc2)C1` (stereo not drawn) it is 56 to 58.5 °C; for `COc1ccc(O)c(C2C(=O)N(Cc3ccc(C(F)(F)F)o3)c3cccc(Cl)c32)n1` (stereo not drawn) it is 151 to 152 °C.

`CC#CC(C)(C)NC(=O)C(COC)Oc1cc(Cl)cc(Cl)c1` (stereo not drawn) showed a melting point of 107 to 110 °C. As for `CC(C)(C)CC(C)(C)c1cc(-n2nc3ccccc3n2)c(O)c(C(C)(C)c2ccccc2)c1`, the figure is 109 to 111 °C; as for `COC(=O)N[C@@H](C)CNc1nccc(-c2cn(C(C)C)nc2-c2cc(Cl)cc(NS(C)(=O)=O)c2F)n1`, 150 to 152 °C. As for `CN(C)c1ccc(C(=S)Nc2ccc([N+](=O)[O-])cc2)cc1`, the figure is 210 °C; as for `COc1cc(C#N)cc2c1OC(C)(C)C2`, 73 to 74 °C. The figure for `Cc1c(CN(C)CCc2ccc(NS(C)(=O)=O)cc2)oc2ccc([N+](=O)[O-])cc12` is 124 °C; for `Cc1cc2c(c3ccc(=O)[nH]c13)OC(CNC(=O)[C@@H](C)NC(=O)OCc1ccccc1)C2` (stereo partly drawn) it is 221 to 222 °C; for `CSc1ccc2c(c1)C(=O)C(C)(C)C(=O)N2` it is 152 °C. The molecule `Fc1ccc(-c2ccc3[nH]ccc3c2)cc1` had a melting point of 71 to 74 °C.

`O=C1Cc2ccccc2Oc2ccc(CC(O)(P(=O)(O)O)P(=O)(O)O)cc21` showed a melting point of 228 °C. As for `Fc1ccc(C2=C(c3ccccc3)N(C(F)(F)F)CO2)cc1F`, the figure is 146 to 148 °C; as for `NS(=O)(=O)c1ccc(-c2cccn2-c2ccc(Cl)cc2)cc1`, 179 to 181 °C; as for `COc1ccc(-c2cc3ccccc3[nH]2)c(C)c1`, 131 °C.

Regarding `CCSc1nnc(S)n1N`, the melting point was determined as 172 °C.

For `CON(Cc1cccc(-c2ccc(Cl)cc2)c1)C(=O)c1cn(C)nc1C(F)F`, the melting point was 78 to 80 °C. For `Cc1ccc(-c2c(Cl)nc3ncnn3c2NC(C)C)c(F)c1`, the melting point is 121 °C. `COc1ccc(-c2cc(=O)n(C(C)C)nc2-c2ccc(OC)cc2)cc1` returned a melting point of 128 to 129 °C.

On to `CN1CCC(c2c[nH]c3ccc(-n4ccnc4)cc23)CC1`, for which the melting point is 217 °C. The figure for `O=C(CC(O)C(=O)O)c1ccc(C(F)(F)F)cc1` (stereo not drawn) is 118 to 120 °C; for `CCOC(=O)c1cn(CC)c2nc(OC)c(N)cc2c1=O` it is 250 to 252 °C. On to `OC(C1=NCC2CCCCN12)(c1ccccc1)c1ccccc1` (stereo not drawn), for which the melting point lay within 131 to 133 °C. The figure for `CCOc1nn(-c2ccc(C(F)(F)F)cn2)cc1CCCOc1cccc(OC)c1CC(=O)O` is 150 to 151 °C; for `CC(C)(C)c1ncncc1C(=O)c1ccc(Cl)cc1` it is 75 to 77 °C. As for `CCOC(=O)C1=Cc2cc(C(F)(F)C(F)(F)F)ccc2OC1C(F)(F)F` (stereo not drawn), the figure is 162 to 165 °C. As for `COc1cc2cc(-c3cc(C)c(O)c(C)c3)[nH]c(=O)c2c(OC)c1CN1CCOCC1`, the figure is 158 to 161 °C; as for `CCCc1nc(C(O)C(C)C)c(C#N)n1Cc1ccc(-c2ccccc2-c2nnnn2C(c2ccccc2)(c2ccccc2)c2ccccc2)cc1` (stereo not drawn), 154 to 155 °C. In the case of `CNC(=O)C(=O)c1ccccc1Oc1ccccc1`, the melting point fell in the range of 94 to 95 °C. As for `O=C(Nc1cc(-c2ccnc3c(C(=O)c4cccs4)cnn23)ccc1F)c1c(F)cccc1F`, the figure is 198 to 200 °C. As for `Cc1cc(C2(C(F)(F)F)CC(c3ccc(F)cc3)=NO2)ccc1N` (stereo not drawn), the figure is 108 to 110 °C; as for `CC(=Cc1ccc(Oc2ccc(Cl)cc2)cc1)[N+](=O)[O-]`, 69 to 71 °C; as for `CC(=O)Nc1ccc(Cl)c2c1C(=O)C(NC(C)=O)CN2C(C)=O` (stereo not drawn), 206 to 210 °C. The figure for `CC(C)OC(=O)C(O)C(CC1CCCCC1)NC(=O)C(Cc1c[nH]cn1)NC(=O)C(CCOc1ccc(F)cc1)Cc1cccc2ccccc12` (mixture of isomers) is 87 to 91 °C; for `O=C1N(Cc2ccccc2)c2cc(Cl)ccc2N=C2CCCC12Cc1ccccc1` (stereo not drawn) it is 139 to 141 °C; for `O=C(O)c1cc(Br)no1` it is 176 to 177 °C. Take `COC(=O)C(C)(N)Cc1c[nH]c2ccc(OC)cc12` (racemic): the melting point lay in the range of 131 to 132 °C.

In the case of `C=Cc1cc(Br)c(Br)cc1Br`, the melting point amounted to 64 °C. Molecule `CC1CC(O)=NN1c1ccc(Cl)c(Cl)c1` (stereo not drawn) registered a melting point of 208 to 211 °C. Molecule `COCCNC(=O)c1cc2c(ccc3cnn(C[C@H](C)N)c32)o1` returned a melting point of 75 to 76 °C. The figure for `Cc1oc(-c2ccccc2)nc1COc1cccc(COc2ccc(CC(=O)O)cc2)c1` is 179 to 180 °C. The figure for `C#CCn1c(=O)sc2cc(F)c(-n3c(OC)nc(C(F)(F)F)cc3=O)cc21` is 191 to 192 °C.

(Values after a melting point compilation (Tetko et al.; mined from patent text by program, amines drawn as free bases though some values may be those of a salt).)
